# Assay results from patent publication US5591742A, “Pyridopyrimidinone antianginal agents” (Pfizer Inc., priority 1992, dated 1997).
# Legend:
# [1] = biological target: T1, calcium/calmodulin (Ca/CAM)-independent cGMP PDE (Oryctolagus cuniculus, UniProt G1SX67); experiment: PDE inhibition: Ca/CAM-independent cGMP PDE from rabbit platelets; type: biochemical; settings: Ca/CAM-independent cGMP PDE, rabbit platelets, in vitro
# T1 construct: The PDE enzymes are isolated from rabbit platelets and rat kidney; from tissue; host or cells: rabbit platelets
# Protocol: (§1) Phosphodiesterase activity
# (§2) Compound affinities for cGMP and cAMP PDEs are assessed by determination of their IC50 values (the concentration of inhibitor required for 50% inhibition of enzyme activity). The PDE enzymes are isolated from rabbit platelets and rat kidney, essentially by the method of W. J. Thompson et al. (Biochem., 1971, 10, 311). The calcium/calmodulin (Ca/CAM)--independent cGMP PDE and the cGMP-inhibited cAMP PDE enzymes are obtained from rabbit platelets whilst, of the four major PDE enzymes of the rat kidney, the Ca/CAM-dependent cGMP PDE (fraction I) is isolated. Assays are performed using a modification of the "batch" method of W. J. Thompson and M. M. Appleman (Biochem., 1979, 18, 5228).
# [2] = tested on: calcium/calmodulin (Ca/CAM)-independent cGMP PDE; experiment: as above; type: biochemical; settings: IC50 cGMP-inhibited cAMP PDE / IC50 Ca/CAM-independent cGMP PDE
# Protocol: as §1, §2
# cGMP-inhibited cAMP PDE = biological target: T2, cGMP-inhibited cAMP PDE (Oryctolagus cuniculus, UniProt G1ST54); experiment: PDE inhibition: cGMP-inhibited cAMP PDE from rabbit platelets; type: biochemical; settings: in vitro
# T2 construct: from tissue; host or cells: rabbit platelets
# T2 sequence (G1ST54 1-1128): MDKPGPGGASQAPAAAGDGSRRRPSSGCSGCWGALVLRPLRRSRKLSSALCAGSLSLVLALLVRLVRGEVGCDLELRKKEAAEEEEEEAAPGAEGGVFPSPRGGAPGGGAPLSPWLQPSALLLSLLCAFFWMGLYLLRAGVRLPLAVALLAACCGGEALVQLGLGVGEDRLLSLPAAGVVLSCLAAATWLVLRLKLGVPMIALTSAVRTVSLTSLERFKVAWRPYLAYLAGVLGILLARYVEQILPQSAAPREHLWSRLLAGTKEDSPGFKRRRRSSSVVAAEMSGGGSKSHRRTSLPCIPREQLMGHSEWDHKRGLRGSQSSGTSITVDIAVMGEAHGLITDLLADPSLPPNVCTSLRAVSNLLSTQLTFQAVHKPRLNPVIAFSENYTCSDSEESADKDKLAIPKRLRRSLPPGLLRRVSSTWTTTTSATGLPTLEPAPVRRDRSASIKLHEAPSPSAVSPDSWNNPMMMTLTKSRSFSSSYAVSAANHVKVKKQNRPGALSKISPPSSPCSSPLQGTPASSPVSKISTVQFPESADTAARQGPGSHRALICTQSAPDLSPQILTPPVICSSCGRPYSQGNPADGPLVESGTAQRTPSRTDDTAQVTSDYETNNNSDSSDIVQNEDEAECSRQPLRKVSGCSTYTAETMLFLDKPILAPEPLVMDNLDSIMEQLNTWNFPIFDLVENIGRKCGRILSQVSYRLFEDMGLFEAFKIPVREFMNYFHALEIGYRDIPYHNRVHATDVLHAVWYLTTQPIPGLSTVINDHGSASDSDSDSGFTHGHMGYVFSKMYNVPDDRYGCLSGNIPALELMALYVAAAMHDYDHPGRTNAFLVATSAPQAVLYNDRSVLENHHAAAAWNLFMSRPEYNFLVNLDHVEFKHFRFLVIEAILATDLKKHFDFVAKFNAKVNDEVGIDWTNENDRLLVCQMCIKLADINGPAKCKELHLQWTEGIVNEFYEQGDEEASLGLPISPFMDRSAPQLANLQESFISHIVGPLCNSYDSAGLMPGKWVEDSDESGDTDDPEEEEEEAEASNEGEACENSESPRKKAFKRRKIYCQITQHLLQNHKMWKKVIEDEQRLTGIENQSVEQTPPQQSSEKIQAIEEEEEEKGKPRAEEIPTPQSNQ
# Protocol: as §1, §2
# [3] = Safety profile in rabbit (i.v. or i.d.); type: in vivo
SMILES,IC50 [1] [nM],SELECTIVITY RATIO [2],IC50 (cGMP-inhibited cAMP PDE) [nM],untoward effects ([3]; doses up to 0.1 mg/kg i.v.),untoward effects ([3]; doses up to 10 mg/kg i.d.),untoward effects ([3]; doses up to 1 mg/kg i.v.),untoward effects ([3]; doses up to 3 mg/kg i.d.)
"CCOc1ccc(S(=O)(=O)N2CCN(C)CC2)cc1-c1nc2c(C#N)ccnc2c(=O)[nH]1 [Example 24, 8-Cyano-2-[2-ethoxy-5-(4-methyl-1-piperazinyl-sulphonyl)phenyl]pyrido[3,2d]pyrimidin-4(3H)-one]",25,"> 4,000",> 100000,–,–,–,–
"CCCc1ccnc2c(=O)[nH]c(-c3cc(S(=O)(=O)N4CCN(C)CC4)ccc3OCC)nc12 [Example 2, 2-[2-Ethoxy-5(4-methyl-l-piperazinylsulphonyl)phenyl]-8-n-propylrido [3,2-d]pyrimidin-4(3H)-one]",26,500,13000,–,–,–,–
"CCCc1ccnc2c(=O)[nH]c(-c3cc(S(=O)(=O)N4CCN(CCO)CC4)ccc3OCC)nc12 [Example 7, 2-{2-Ethoxy-5-[4-(2-hydroxyethyl)-1-piperazinyl-sulphony]phenyl}-8-n-propylprido[3.2-d]pyrimidin-4(3H)-one]",9.8,"1,122",11000,no untoward effects being observed,–,–,–
"CCCc1ccnc2c(=O)[nH]c(-c3cc(S(=O)(=O)N4CCNCC4)ccc3OCC)nc12 [Example 3, 2-[2-Ethoxy-5-(1-piperazinylsulphonyl]phenyl]-8-n-propylprido [3,2-d]pyrimidin-4(3H) -one]",–,–,–,–,no untoward effects being observed,–,–
"CCCc1ccnc2c(=O)[nH]c(-c3cc(S(=O)(=O)N4CCC(C(=O)O)CC4)ccc3OCC)nc12 [Example 9, 2-[5-(4-Carboxypiperidinosulphonyl)-2-ethoxyphenyl]-8-n-propylprido [3,2-d]pyrimidin-4(3H)-one]",1.2,183,220,–,–,no untoward effects being observed,–
"CCCc1ccnc2c(=O)[nH]c(-c3cc(S(=O)(=O)NCCN4CCNC4=O)ccc3OCC)nc12 [Example 8, 2-{2-Ethoxy-5-[2-(1-imidazolidin-2-onyl)ethyl-sulphamoyl]phenyl}-8-n-propylprido[3,2-d]pryimidin-4 (3H)-one]",–,–,–,–,–,–,no untoward effects being observed
"CCCc1ccnc2c(=O)[nH]c(-c3cc(S(=O)(=O)N(C)CCC(=O)OCC)ccc3OCC)nc12 [Example 5, 2-[2 -Ethoxy-5-(N-2-ethoxycarbonylethyl-N-methyl-sulphamoyl)phenyl]-8-n-propylpyrido[3,2-d]pyrimidin-4(3H)-one]",14,592,8300,–,–,–,–
"CCCc1ccnc2c(=O)[nH]c(-c3cc(NS(=O)(=O)c4cccnc4)ccc3OCC)nc12 [Example 12A, 2-[2-Ethoxy-5-(3-pyridylsulphonylamino)phenyl]-8-n-propylpyrido [3,2-d]pyrimidin-4(3H) -one]",19,242,4600,–,–,–,–
"CCCc1ccnc2c(=O)[nH]c(-c3cc(S(=O)(=O)N4CCC(C(=O)OCC)CC4)ccc3OCC)nc12 [Example 4, 2-[2-Ethoxy-5-(4-ethoxycarbonylpiperidinosulphonyl)-phenyl]-8-n-propylprido[3,2-d]pyrimidin-4(3H) -one]",5.6,"1,357",7600,–,–,–,–
"CCCc1ccnc2c(=O)[nH]c(-c3cc(S(=O)(=O)NCCN4CCOCC4)ccc3OCC)nc12 [Example 1, 2-[2-Ethoxy-5-(2-morpholinoethylsulphamoyl)phenyl]-8-n-propylprido [3,2,d]pyrimidin-4 (3H) -one]",21,904,19000,–,–,–,no untoward effects being observed
